Experimental data: patent publication US20030091533A1, “Regulation of mononuclear phagocyte stimulation” (priority 2001, published 2003)
Values joined by “and” are separate entries in the source; they are usually repeats but may differ in a detail not shown here. Identical values can stand only once.

B1: IFN-γ: Interferon gamma, primes mononuclear phagocytes, 200 U/ml (protein, UniProt P01579 24-161, looked up)
Interferon gamma: QDPYVKEAENLKKYFNAGHSDVADNGTLFLGILKNWKEESDRKIMQSQIVSFYFKLFKNFKDDQSIQKSVETIKEDMNVKFFNSNKKKRDDFEKLTNYSVTDLNVQRKAIHELIQVMAELSPAAKTGKRKRSQMLFRG

Columns and labels:
Type in all cases: cell-based, human
LPS-stimulated AM [1] = assay: TNF-α release, cytotoxic bioassay with WEHI 164 clone 13 cells, AM; details: for TNF-α release by LPS-stimulated AM: preincubated 24 hour with cytokine (IL-9, IL-4 20 ng/ml, IFN-γ 200 U/ml) or medium, LPS 1 μg/ml 20 h, without LPS 4.6±2.1
Method: PBM and AM obtained as described infra (1×10^6 PBM, 0.5×10^6 AM) were preincubated for 24 hour with cytokines, IL-4, IL-9 (20 ng/ml) and IFN-γ (200 U/ml) before the stimulation by LPS (1 μg/ml) for 20 h. Supernatants were harvested and frozen at −20° C. until cytokine titration. TNF-α release was determined in supernatants by a cytotoxic bioassay using WEHI 164 clone 13 target cells (Espevik and Nissen-Meyer, J. Immunol. Methods, 95:99-105 (1986) (incorporated herein by reference)), while IL-8 was quantitated in the same supernatants by ELISA. FIG. 5 depicts the effects of IL-9, IL-4, and IFN-γ on the release of TNFα (A) and IL-8 (B) by LPS-stimulated PBM and AM. Data are means±SEM (n=3). *P<0.001 compared with unstimulated cells; **P<0.05 compared with cells preincubated with medium.
(§1) Cells (1×10^6 PBM or 0.5×10^6 AM/well) were distributed in 24-well plates (Falcon), preincubated in cRPMI for 24 hours at 37° C., 5% CO2 with cytokines (IL-9, IL-4 (20 ng/ml) and IFN-γ (200 U/ml)) and stimulated for 20 hours with 1 μg/ml LPS without removing cytokines. Supernatants were harvested and frozen at −20° C. until cytokine titration. Release of TNF-α was quantified by a cytotoxicity bioassay using WEHI 164 cells clone 13, as previously described (Espevik and Nissen-Meyer, J. Immunol. Methods, 95:99-105 (1986) incorporated herein by reference), using rhTNF-α from Boehringer as a standard. IL-8, IL-10 and TGF-β1 concentrations were determined by ELISA. A kit from CLB (Amsterdam, The Netherlands) was used for IL-10 quantitation, following the manufacturer's protocol. A kit from Biosource allowed to determine TGF-β1 after the release from its latent complexes by a treatment of supernatants with ethanol acid (‘acid-treated supernatants’); TGF-P 1 was also assessed in crude supernatants (‘untreated supernatants’). […] The reaction was then developed in 0.03% v/v H2O2 substrate and 0.42 mM 3,3′,5,5′-tetramethylbenzidine as chromogen in 100 mM sodium acetate/citric acid buffer (pH 4.9), stopped with 2 M H2SO4, and read in a plate spectrometer at 450 nm. […]

LPS-stimulated PBM = assay: IL-10 release by ELISA, PBM; details: for IL-10 release by LPS-stimulated PBM: preincubated 24 hour, LPS 20 h
Method: FIG. 6 depicts the effect of IL-9, IL-4 and IFN-γ on the release of IL-10 (A) and TGF-β1 (B) by LPS-stimulated PBM and AM cultured under the same conditions as described in FIG. 5 Example I. D. TGF-β1 was determined by ELISA in crude supernatants (untreated supernatants) and in ethanol-acid (acid-treated) supernatants, using a kit from Biosource for determining TGF-β1 release from its latent complexes. An ELISA kit from CLB (Amsterdam, The Netherlands) was used to determine IL-10 following the manufacturer's protocol. […] Data are means±SEM (n=3). *P<0.05 compared with unstimulated cells; **P<0.05 compared with cells preincubated with medium.
as §1, with “supernatants’). To assay for IL-8, 96-well plates were coated overnight at 4° C. with 4 μg/ml anti-hIL-8 mAb (Sigma, clone 6217.11) in 100 mM sodium carbonate buffer (pH 9.6).” for “supernatants’).”

LPS-stimulated AM [2] = assay: Intracellular oxidative burst, DCFH oxidation assay, AM; details: for oxidative burst in LPS-stimulated AM with IFN-γ: preincubated 24 hour with cytokine 20 ng/ml in the presence of IFN-γ 200 U/ml, LPS 1 μg/ml 20 hour; for LPS-stimulated oxidative burst in AM: preincubation 24 hour with cytokine 20 ng/ml, then LPS 1 μg/ml 20 hour, without IFN-γ
Method: Intracellular oxidative capacity was assessed essentially as described by Bass et al., J. Immunol., 130:1910-1917 (1983) (incorporated herein by reference) as described infra.
Cells (0.2×10^6) were preincubated for 24 hour with IL-9 or IL-4 (20 ng/ml) in the presence of IFN-γ (200 U/ml) before stimulation for 20 hour with LPS (1 μg/ml). The intracellular oxidative capacity was measured through the DCFH oxidation assay as describe herein. FIG. 3 depicts the effect of IFN-γ on the inhibition mediated by IL-9 and IL-4 on the oxidative burst in LPS-stimulated PBM (A) and AM (B).
Table 1. Specific blockade of the IL-9 inhibitory effect on oxidative burst in LPS-15 stimulated PBM and AM by anti-hIL-9R mAb. Cells (0.2×10^6) were preincubated with neutralizing mAb against hIL-9R (AH9R7, 10 μg/ml), or with control mIgG2b (10 μg/ml), 1 hour before incubation with IL-9 (20 ng/ml) for 24 hour without removing mAb, and stimulated by LPS (1 μg/ml) for 20 h. Intracellular oxidative capacity was evaluated by the DCFH oxidation assay. Data are means±SEM obtained from three experiments, triplicate conditions being performed in each experiment. *P<0.001 compared with cells preincubated with IL-9 (with or without control mIgG2b).
Intracellular oxidative capacity was assessed as described by Bass et al., (Bass et al., J. Immunol. 130:1910-1917 (1983)). Briefly, the PBM and AM samples were distributed in 96-well plates with flat bottoms (Falcon) to provide 0.2×10^6cells/well. The cells were preincubated for 24 hour at 37° C., 5% CO2 with cytokines (200 u/ml for IFN-y, 20 ng/ml for IL-9 and 20 ng/ml; for IL-4) in cRPMI before being stimulated for 20 hours with LPS (1 μg/ml) without removing the cytokines. At the end of incubation with cytokines and/or LPS, cells were loaded for 15 min with 15 μM DCFH-DA in cRPMI which, after passive penetration into cells, is hydrolyzed into nonfluorescent polar DCFH and trapped inside the cells. DCFH is then oxidized into highly fluorescent DCF according to the intracellular amount of hydrogen peroxide (H2O2) produced by the respiratory burst. After three washings with phosphate-buffered saline (PBS, pH 7.4), cells were lysed in 0.1% v/v Triton X100 (Sigma) in PBS, and fluorescence was quantified in a computerized microplate spectrofluorimeter (Packard Instruments, Downers Grove, Ill., USA) at 485 nm excitation/530 nm emission wavelengths. DCF concentrations were deduced from a standard curve of known concentrations of fluorescent DCF (ranging from 0.08 to 10 μM in lysis buffer) Results were corrected for total protein concentration determined in cell lysates by the bicinchoninic acid-based method (Pierce, Rockford, Ill., USA), and were expressed as nmoles DCF/mg cell protein.

Row | Molecule | effect on TNF-α production in LPS-stimulated AM (LPS-stimulated AM [1]; preincubated 24 hour, LPS 20 h) | IL-10 release by LPS-stimulated PBM (LPS-stimulated PBM) | oxidative burst in LPS-stimulated AM with IFN-γ (LPS-stimulated AM [2]) | LPS-stimulated oxidative burst in AM (LPS-stimulated AM [2]) | TNF-α release by LPS-stimulated AM (LPS-stimulated AM [1]) | LPS-induced IL-10 release by PBM (LPS-stimulated PBM; preincubated 24 hour 20 ng/ml, LPS 1 μg/ml 20 h, medium-preincubated 217.8±25.8) | Oxidative burst (nmoles DCF/mg protein) (LPS-stimulated AM [2]; Table 1, AM, mAb 10 μg/ml 1 hour before IL-9 20 ng/ml 24 hour, LPS 1 μg/ml 20 h, means±SEM, medium 5.8 ± 0.6) | effect on LPS-stimulated oxidative burst in AM (LPS-stimulated AM [2]; preincubation 24 hour, LPS 20 hour)
1 | IL-4: Th2 cytokine interleukin-4 used as comparator, 20 ng/ml | No significant inhibition | inhibited | 13.8±1.3 nmoles DCF/mg protein | 6.1±0.4 nmoles DCF/mg protein |  |  |  | 
2 | IL-9: Human IL-9 purified from SF9 insect cell cultures infected with recombinant baculovirus |  |  | 6.6±1.2 nmoles DCF/mg protein | 6.5±0.5 nmoles DCF/mg protein and 6.5±0.6 nmoles DCF/mg protein | 74.8 ± 10.2 pg/mL | 119.7 ± 8.7 pg/mL | 6.5 ± 0.5 nmoles DCF/mg protein | 
3 | B1 |  | decreased |  |  | 145.2 ± 9.4 pg/mL |  |  | slightly increased
